# According to ChEMBL document CHEMBL1201862, “PubChem BioAssay data set” (2004):
#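 Cultured in 96-well plates, cells were exposed to test compound for 48 hours across five concentrations. GI50: concentration for 50% inhibition of growth.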 Activity calls are given as the source filed them. Rule as the data show it: active = GI50 up to about 1.1 µM and inactive = higher.
# Experiments:
# Test in all cases: inhibition of tumour cell growth, NCI panel, 48 h
# CCRF-CEM = tested on: CCRF-CEM
# HT-29 = tested on: HT-29
# COLO 205 = tested on: COLO 205
# NCI/ADR-RES = tested on: NCI/ADR-RES
# K562 = tested on: K562
# OVCAR-8 = tested on: OVCAR-8
# MDA-MB-435 = tested on: MDA-MB-435
# PC-3 = tested on: PC-3
# HOP-62 = tested on: HOP-62
# HOP-92 = tested on: HOP-92
# KM12 = tested on: KM12
# SF-539 = tested on: SF-539
# 786-0 = tested on: 786-0
# RPMI-8226 = tested on: RPMI-8226
# MCF7 = tested on: MCF7
# DU-145 = tested on: DU-145
# SNB-75 = tested on: SNB-75
# SNB-19 = tested on: SNB-19
# HCC 2998 = tested on: HCC 2998
# SK-MEL-28 = tested on: SK-MEL-28
# SN12C = tested on: SN12C
# UACC-62 = tested on: UACC-62
# HCT-15 = tested on: HCT-15
# MDA-N = tested on: MDA-N
# UACC-257 = tested on: UACC-257
# A498 = tested on: A498
# OVCAR-5 = tested on: OVCAR-5
# MDA-MB-231 = tested on: MDA-MB-231
# SF-295 = tested on: SF-295
# OVCAR-3 = tested on: OVCAR-3
# SW-620 = tested on: SW-620
# NCI-H522 = tested on: NCI-H522
# EKVX = tested on: EKVX
# SF-268 = tested on: SF-268
# CAKI-1 = tested on: CAKI-1
# SR = tested on: SR
# MOLT-4 = tested on: MOLT-4
# UO-31 = tested on: UO-31
# NCI-H460 = tested on: NCI-H460
# NCI-H23 = tested on: NCI-H23
# T47D = tested on: T47D
# SK-MEL-2 = tested on: SK-MEL-2
# OVCAR-4 = tested on: OVCAR-4
# RXF 393 = tested on: RXF 393
# SK-OV-3 = tested on: SK-OV-3
# Malme-3M = tested on: Malme-3M
# A549 = tested on: A549
# TK-10 = tested on: TK-10
# M14 = tested on: M14
# ACHN = tested on: ACHN
# NCI-H226 = tested on: NCI-H226
# Hs-578T = tested on: Hs-578T
# LOX IMVI = tested on: LOX IMVI
# BT-549 = tested on: BT-549
# U-251 = tested on: U-251
# SK-MEL-5 = tested on: SK-MEL-5
# HCT-116 = tested on: HCT-116
# HL-60 = tested on: HL-60
# IGROV-1 = tested on: IGROV-1
smiles,measurement,setting,value
CN(CCN)[C@H](CSSC[C@@H](c1ccccc1O)N(C)CCN)c1ccccc1O,GI50,CCRF-CEM,1.44 µM (inactive)
same,GI50,HT-29,9.55 µM (inactive)
same,GI50,COLO 205,24.8 µM (inactive)
same,GI50,NCI/ADR-RES,6.1 µM (inactive)
same,GI50,K562,7.18 µM (inactive)
same,GI50,OVCAR-8,9.04 µM (inactive)
same,GI50,MDA-MB-435,18 µM (inactive)
same,GI50,PC-3,11.7 µM (inactive)
same,GI50,HOP-62,12.1 µM (inactive)
same,GI50,HOP-92,17.7 µM (inactive)
same,GI50,KM12,11.1 µM (inactive)
same,GI50,SF-539,15.1 µM (inactive)
same,GI50,786-0,7.57 µM (inactive)
same,GI50,RPMI-8226,12.9 µM (inactive)
same,GI50,MCF7,14.9 µM (inactive)
same,GI50,DU-145,14.8 µM (inactive)
same,GI50,SNB-75,14.7 µM (inactive)
same,GI50,SNB-19,12.1 µM (inactive)
same,GI50,HCC 2998,12 µM (inactive)
same,GI50,SK-MEL-28,14.3 µM (inactive)
same,GI50,SN12C,9.48 µM (inactive)
same,GI50,UACC-62,10 µM (inactive)
same,GI50,HCT-15,5.33 µM
same,GI50,MDA-N,11.9 µM (inactive)
same,GI50,UACC-257,14.9 µM (inactive)
same,GI50,A498,20.2 µM (inactive)
same,GI50,OVCAR-5,13.9 µM (inactive)
same,GI50,MDA-MB-231,8.81 µM (inactive)
same,GI50,SF-295,6.85 µM (inactive)
same,GI50,OVCAR-3,8.38 µM (inactive)
same,GI50,SW-620,15.7 µM (inactive)
same,GI50,NCI-H522,16.5 µM (inactive)
same,GI50,EKVX,11.5 µM (inactive)
same,GI50,SF-268,12.4 µM (inactive)
same,GI50,CAKI-1,13 µM (inactive)
same,GI50,SR,2.87 µM (inactive)
same,GI50,MOLT-4,4.73 µM (inactive)
same,GI50,UO-31,10.1 µM (inactive)
same,GI50,NCI-H460,4.98 µM (inactive)
same,GI50,NCI-H23,13.8 µM (inactive)
same,GI50,T47D,26.1 µM (inactive)
same,GI50,SK-MEL-2,14.6 µM (inactive)
same,GI50,OVCAR-4,14.1 µM (inactive)
same,GI50,RXF 393,18.9 µM (inactive)
same,GI50,SK-OV-3,11.7 µM (inactive)
same,GI50,Malme-3M,16.3 µM (inactive)
same,GI50,A549,7.24 µM (inactive)
same,GI50,TK-10,13.9 µM (inactive)
same,GI50,M14,13.5 µM (inactive)
same,GI50,ACHN,10.1 µM (inactive)
same,GI50,NCI-H226,11.7 µM (inactive)
same,GI50,Hs-578T,20.4 µM (inactive)
same,GI50,LOX IMVI,4.27 µM (inactive)
same,GI50,BT-549,9.95 µM (inactive)
same,GI50,U-251,15.9 µM (inactive)
same,GI50,SK-MEL-5,12 µM (inactive)
same,GI50,HCT-116,4.12 µM (inactive)
Cc1cccc(CNc2[nH]cnc3nncc2-3)c1,GI50,CCRF-CEM,> 100 µM (inactive)
same,GI50,HT-29,> 100 µM (inactive)
same,GI50,COLO 205,95.9 µM (inactive)
same,GI50,NCI/ADR-RES,90.2 µM (inactive)
same,GI50,K562,47.1 µM (inactive)
same,GI50,OVCAR-8,49.1 µM (inactive)
same,GI50,MDA-MB-435,> 100 µM (inactive)
same,GI50,HL-60,> 100 µM (inactive)
same,GI50,PC-3,> 100 µM (inactive)
same,GI50,HOP-62,> 100 µM (inactive)
same,GI50,HOP-92,40.5 µM (inactive)
same,GI50,KM12,> 100 µM (inactive)
same,GI50,SF-539,> 100 µM (inactive)
same,GI50,786-0,> 100 µM (inactive)
same,GI50,RPMI-8226,44.3 µM (inactive)
same,GI50,MCF7,> 100 µM (inactive)
same,GI50,DU-145,> 100 µM (inactive)
same,GI50,SNB-75,53.5 µM (inactive)
same,GI50,SNB-19,> 100 µM (inactive)
same,GI50,SK-MEL-28,> 100 µM (inactive)
same,GI50,SN12C,72.8 µM (inactive)
same,GI50,UACC-62,> 100 µM (inactive)
same,GI50,HCT-15,> 100 µM
same,GI50,MDA-N,> 100 µM (inactive)
same,GI50,UACC-257,76.6 µM (inactive)
same,GI50,A498,40.6 µM (inactive)
same,GI50,OVCAR-5,40.4 µM (inactive)
same,GI50,MDA-MB-231,> 100 µM (inactive)
same,GI50,SF-295,> 100 µM (inactive)
same,GI50,OVCAR-3,> 100 µM (inactive)
same,GI50,SW-620,> 100 µM (inactive)
same,GI50,NCI-H522,56.5 µM (inactive)
same,GI50,EKVX,37.2 µM (inactive)
same,GI50,SF-268,> 100 µM (inactive)
same,GI50,CAKI-1,80.7 µM (inactive)
same,GI50,SR,43.5 µM (inactive)
same,GI50,MOLT-4,58.2 µM (inactive)
same,GI50,UO-31,47.4 µM (inactive)
same,GI50,NCI-H460,> 100 µM (inactive)
same,GI50,NCI-H23,> 100 µM (inactive)
same,GI50,T47D,78.3 µM (inactive)
same,GI50,SK-MEL-2,> 100 µM (inactive)
same,GI50,OVCAR-4,87.7 µM (inactive)
same,GI50,RXF 393,> 100 µM (inactive)
same,GI50,SK-OV-3,> 100 µM (inactive)
same,GI50,Malme-3M,> 100 µM (inactive)
same,GI50,A549,> 100 µM (inactive)
same,GI50,TK-10,> 100 µM (inactive)
same,GI50,M14,> 100 µM (inactive)
same,GI50,ACHN,75.7 µM (inactive)
same,GI50,NCI-H226,49.5 µM (inactive)
same,GI50,IGROV-1,64.4 µM (inactive)
same,GI50,Hs-578T,> 100 µM (inactive)
same,GI50,LOX IMVI,> 100 µM (inactive)
same,GI50,BT-549,> 100 µM (inactive)
same,GI50,U-251,> 100 µM (inactive)
same,GI50,SK-MEL-5,64.4 µM (inactive)
same,GI50,HCT-116,> 100 µM (inactive)
O=C(O)CSc1ccc([N+](=O)[O-])cc1[N+](=O)[O-],GI50,HT-29,> 100 µM (inactive)
same,GI50,NCI/ADR-RES,> 100 µM (inactive)
same,GI50,K562,> 100 µM (inactive)
same,GI50,OVCAR-8,> 100 µM (inactive)
same,GI50,MDA-MB-435,> 100 µM (inactive)
same,GI50,HL-60,> 100 µM (inactive)
same,GI50,PC-3,> 100 µM (inactive)
same,GI50,HOP-62,> 100 µM (inactive)
same,GI50,HOP-92,> 100 µM (inactive)
same,GI50,KM12,> 100 µM (inactive)
same,GI50,786-0,> 100 µM (inactive)
same,GI50,RPMI-8226,> 100 µM (inactive)
same,GI50,MCF7,> 100 µM (inactive)
same,GI50,DU-145,> 100 µM (inactive)
same,GI50,SNB-75,> 100 µM (inactive)
same,GI50,SNB-19,> 100 µM (inactive)
same,GI50,HCC 2998,> 100 µM (inactive)
same,GI50,SK-MEL-28,> 100 µM (inactive)
same,GI50,SN12C,> 100 µM (inactive)
same,GI50,UACC-62,> 100 µM (inactive)
same,GI50,HCT-15,> 100 µM
same,GI50,MDA-N,> 100 µM (inactive)
same,GI50,UACC-257,> 100 µM (inactive)
same,GI50,A498,> 100 µM (inactive)
same,GI50,OVCAR-5,> 100 µM (inactive)
same,GI50,MDA-MB-231,> 100 µM (inactive)
same,GI50,SF-295,> 100 µM (inactive)
same,GI50,OVCAR-3,> 100 µM (inactive)
same,GI50,SW-620,> 100 µM (inactive)
same,GI50,NCI-H522,> 100 µM (inactive)
same,GI50,EKVX,> 100 µM (inactive)
same,GI50,SF-268,> 100 µM (inactive)
same,GI50,CAKI-1,> 100 µM (inactive)
same,GI50,SR,> 100 µM (inactive)
same,GI50,UO-31,> 100 µM (inactive)
same,GI50,NCI-H460,> 100 µM (inactive)
same,GI50,NCI-H23,> 100 µM (inactive)
same,GI50,T47D,> 100 µM (inactive)
same,GI50,SK-MEL-2,> 100 µM (inactive)
same,GI50,OVCAR-4,> 100 µM (inactive)
same,GI50,RXF 393,> 100 µM (inactive)
same,GI50,SK-OV-3,> 100 µM (inactive)
same,GI50,Malme-3M,> 100 µM (inactive)
same,GI50,A549,> 100 µM (inactive)
same,GI50,TK-10,> 100 µM (inactive)
same,GI50,M14,> 100 µM (inactive)
same,GI50,ACHN,> 100 µM (inactive)
same,GI50,IGROV-1,> 100 µM (inactive)
same,GI50,Hs-578T,> 100 µM (inactive)
same,GI50,LOX IMVI,> 100 µM (inactive)
same,GI50,BT-549,> 100 µM (inactive)
same,GI50,U-251,> 100 µM (inactive)
same,GI50,HCT-116,> 100 µM (inactive)
